In patent publication US20260184706A1, “PHENYLSULFONAMIDE DERIVATIVES, PREPARATION METHOD THEREFOR, AND PHARMACEUTICAL COMPOSITION FOR PREVENTION OR TREATMENT OF CANCER CONTAINING SAME AS ACTIVE INGREDIENT” (Korea Research Institute of Chemical Technology, priority 2022, published 2026):
pIC50: −log10 of the molar value.

Key:
[1] = target: recombinant human GCN2 protein (Homo sapiens, UniProt Q9P2K8); assay: General control nonderepressible 2 (GCN2) inhibitory capacity, 33P-ATP filter assay; assay type: biochemical; conditions: recombinant human GCN2, 70 uM [gamma-33P-ATP], 40 minutes, room temperature
Sequence of recombinant human GCN2 protein (Q9P2K8 whole entry): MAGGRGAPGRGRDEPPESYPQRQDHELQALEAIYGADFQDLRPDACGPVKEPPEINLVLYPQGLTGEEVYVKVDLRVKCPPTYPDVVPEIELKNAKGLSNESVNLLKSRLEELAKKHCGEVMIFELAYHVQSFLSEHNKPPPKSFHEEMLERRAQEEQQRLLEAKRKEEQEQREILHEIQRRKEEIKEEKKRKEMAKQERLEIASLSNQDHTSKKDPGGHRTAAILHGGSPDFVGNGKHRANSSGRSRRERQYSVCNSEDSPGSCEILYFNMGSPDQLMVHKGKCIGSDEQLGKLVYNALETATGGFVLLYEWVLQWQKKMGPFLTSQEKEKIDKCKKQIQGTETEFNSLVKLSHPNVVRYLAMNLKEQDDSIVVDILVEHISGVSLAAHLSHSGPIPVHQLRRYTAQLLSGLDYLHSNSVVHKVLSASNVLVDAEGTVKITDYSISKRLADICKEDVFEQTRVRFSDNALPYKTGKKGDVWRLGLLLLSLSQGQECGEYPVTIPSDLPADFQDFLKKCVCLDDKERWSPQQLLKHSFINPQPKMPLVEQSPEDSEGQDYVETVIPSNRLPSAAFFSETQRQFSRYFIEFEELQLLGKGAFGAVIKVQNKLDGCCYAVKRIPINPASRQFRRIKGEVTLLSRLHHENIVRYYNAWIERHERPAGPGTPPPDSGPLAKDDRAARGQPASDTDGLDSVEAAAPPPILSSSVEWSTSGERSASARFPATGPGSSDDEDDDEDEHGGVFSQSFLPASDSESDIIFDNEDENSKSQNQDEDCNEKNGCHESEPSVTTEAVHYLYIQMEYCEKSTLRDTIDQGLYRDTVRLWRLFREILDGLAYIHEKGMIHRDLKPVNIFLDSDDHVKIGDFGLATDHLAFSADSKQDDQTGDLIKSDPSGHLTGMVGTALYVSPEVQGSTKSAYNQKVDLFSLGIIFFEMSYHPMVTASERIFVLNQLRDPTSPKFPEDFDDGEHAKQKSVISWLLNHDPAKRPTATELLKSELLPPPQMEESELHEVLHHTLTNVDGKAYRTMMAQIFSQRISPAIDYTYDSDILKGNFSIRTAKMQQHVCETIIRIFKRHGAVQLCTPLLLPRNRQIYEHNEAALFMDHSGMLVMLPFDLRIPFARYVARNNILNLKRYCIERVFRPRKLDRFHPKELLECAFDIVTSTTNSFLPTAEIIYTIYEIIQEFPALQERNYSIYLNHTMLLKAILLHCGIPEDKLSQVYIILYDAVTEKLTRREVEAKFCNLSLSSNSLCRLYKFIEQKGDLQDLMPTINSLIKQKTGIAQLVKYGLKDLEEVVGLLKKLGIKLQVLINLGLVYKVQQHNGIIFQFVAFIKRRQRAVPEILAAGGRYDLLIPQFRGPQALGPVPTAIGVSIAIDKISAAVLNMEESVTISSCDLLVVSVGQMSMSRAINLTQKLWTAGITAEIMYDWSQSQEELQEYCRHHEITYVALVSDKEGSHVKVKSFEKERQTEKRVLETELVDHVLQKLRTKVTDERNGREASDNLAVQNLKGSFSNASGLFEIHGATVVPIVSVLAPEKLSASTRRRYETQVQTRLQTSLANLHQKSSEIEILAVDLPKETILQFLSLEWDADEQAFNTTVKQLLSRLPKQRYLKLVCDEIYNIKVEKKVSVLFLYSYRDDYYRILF
Description: <Experimental Example 2> Evaluation of General Control Nonderepressible 2 (GCN2) Inhibitory Capacity
(§1) A recombinant human GCN2 protein was mixed with the compound in a reaction solution (20 mM Tris/HCl pH8.5, 0.2 mM EDTA, 0.1% Tween, 100 mM NaCl, 300 μM RSRSRSRSRSRSRSR, 10 mM Magnesium acetate, 70 uM [gamma-33P-ATP]) and reacted at room temperature for 40 minutes. Then, the reaction was terminated by adding phosphoric acid (0.5%) to the reaction mixture, and 10 ul of the reaction solution was dropped onto a P30 filter. The filter was washed four times in a 0.425% phosphoric acid solution for 4 minutes, then washed once more in methanol, dried, and the GCN2 activity was measured by scintillation counting. […] The compound was diluted by 1/3 from the highest concentration of 1 uM and treated with a total of 9 concentrations to evaluate the degree of inhibition.

phosphorylated GCN2 = target: T1, phosphorylated GCN2 (Homo sapiens, UniProt Q9P2K8); assay: Inhibition of phosphorylated GCN2 under amino acid deficiency in HT-1080 cells, Western blot; assay type: cell-based; conditions: compound 50 nM, 24 hours; for Phospho-GCN2 inhibition: symbols ◯ / X not defined
T1 construct: endogenous in cells; host or cells: HT-1080
T1 sequence (Q9P2K8 whole entry): as above
Description: <Experimental Example 5> Evaluation of Inhibitory Efficacy of ISR-Related Kinase GCN2 Under Amino Acid Deficiency Condition Using Western Blot
HT-1080 cells, a human fibrosarcoma cell line, were cultured in RPMI-1640 medium supplemented with 10% FBS, penicillin (penicillin; 100 IU/ml), and streptomycin (streptomycin; 100 μg/ml). Cells (1×10^6 cells/ml) were seeded onto 100 mm plates (polypropylene tissue culture plate) and incubated for 24 hours in a 37° C., 5% CO2 incubator before being used for experiments.
The following method was used to achieve amino acid deficiency conditions in cells. After 24 hours of cell culture, the cells were cultured in amino acids and L-glutamine-free RPMI-1640 medium supplemented with 10% FBS, penicillin (100 IU/ml), and streptomycin (100 μg/ml). After 24 hours of cell culture in RPMI-1640 without amino acids and L-glutamine, the compound prepared at a concentration of 50 nM was dispensed onto each plate and cultured for 24 hours in a 37° C., 5% CO2 incubator.
In order to measure the signal transduction inhibitory efficacy of GCN among the ISR-related kinases according to the present invention, the following experiment was performed using SDS-PAGE. The fibrosarcoma cell line HT-1080 cells cultured on plates as described above were washed with PBS after removing the culture medium. After removing PBS, the cells were lysed by adding a radio-immunoprecipitation assay buffer (RIPA buffer) containing 50 mM Tris (pH 7.4), 150 mM NaCl, 1% NP-40, 0.5% sodium deoxycholate, 2 mM sodium fluoride, 2 mM EDTA, 0.1% SDS, and a protease/phosphatase inhibitor cocktail to the plate. After centrifugation at 4° C., 13,000×g for 15 minutes, the protein in the upper layer was collected, and the protein concentration was measured at 562 nm using BCA (bicinchoninc acid) reagent, and the amount of protein in all samples was prepared at 20-50 μg.
After making the total volume the same using the sample buffer and RIPA buffer, it was heated at 97° C. for 5 minutes. Then, electrophoresis was performed on 8% or 12% SDS-PAGE at 80 V for 30 minutes and at 160 V for 1 hour and 30 minutes. After electrophoresis, the SDS-PAGE gel was transferred to an NC membrane (nitrocellulose membrane) at 90 V for 2 hours. The NC membrane was placed in TBST (tris buffer saline tween-20; 20 mM tris, 137 mM sodium chloride, 0.1% tween-20, pH 8.0) containing 5% non-fat skim milk, placed on a shaker, and reacted at room temperature for 1 hour.
Each primary antibody was diluted in TBST containing 5% non-fat skim milk, poured onto the NC membrane, and reacted at 4° C. for 24 hours. The membrane was washed three times for 10 minutes each with TBST. The secondary antibodies (anti-rabbit IgG and anti-mouse IgG labeled with horseradish peroxidase (HRP)) were diluted in TBST containing 5% non-fat skim milk and reacted with the membrane at room temperature for 1 hour. Upon completion of the reaction, the membrane was washed three times with TBST for 10 minutes each. Protein expression bands were detected by a chemiluminescence image analyzer (Image Quant LAS 500) after the ECL solution was reacted with the NC membrane.
GCN2, a key kinase of the integrated stress response (ISR), is phosphorylated in response to amino acid deficiency.

[2] = target: T2, recombinant human PERK protein (Homo sapiens, UniProt Q9NZJ5); assay: PKR-like endoplasmic reticulum kinase (PERK) inhibitory capacity, 33P-ATP filter assay; assay type: biochemical; conditions: 15 uM [gamma-33P-ATP], 40 minutes, room temperature
T2 sequence (Q9NZJ5 30-1116): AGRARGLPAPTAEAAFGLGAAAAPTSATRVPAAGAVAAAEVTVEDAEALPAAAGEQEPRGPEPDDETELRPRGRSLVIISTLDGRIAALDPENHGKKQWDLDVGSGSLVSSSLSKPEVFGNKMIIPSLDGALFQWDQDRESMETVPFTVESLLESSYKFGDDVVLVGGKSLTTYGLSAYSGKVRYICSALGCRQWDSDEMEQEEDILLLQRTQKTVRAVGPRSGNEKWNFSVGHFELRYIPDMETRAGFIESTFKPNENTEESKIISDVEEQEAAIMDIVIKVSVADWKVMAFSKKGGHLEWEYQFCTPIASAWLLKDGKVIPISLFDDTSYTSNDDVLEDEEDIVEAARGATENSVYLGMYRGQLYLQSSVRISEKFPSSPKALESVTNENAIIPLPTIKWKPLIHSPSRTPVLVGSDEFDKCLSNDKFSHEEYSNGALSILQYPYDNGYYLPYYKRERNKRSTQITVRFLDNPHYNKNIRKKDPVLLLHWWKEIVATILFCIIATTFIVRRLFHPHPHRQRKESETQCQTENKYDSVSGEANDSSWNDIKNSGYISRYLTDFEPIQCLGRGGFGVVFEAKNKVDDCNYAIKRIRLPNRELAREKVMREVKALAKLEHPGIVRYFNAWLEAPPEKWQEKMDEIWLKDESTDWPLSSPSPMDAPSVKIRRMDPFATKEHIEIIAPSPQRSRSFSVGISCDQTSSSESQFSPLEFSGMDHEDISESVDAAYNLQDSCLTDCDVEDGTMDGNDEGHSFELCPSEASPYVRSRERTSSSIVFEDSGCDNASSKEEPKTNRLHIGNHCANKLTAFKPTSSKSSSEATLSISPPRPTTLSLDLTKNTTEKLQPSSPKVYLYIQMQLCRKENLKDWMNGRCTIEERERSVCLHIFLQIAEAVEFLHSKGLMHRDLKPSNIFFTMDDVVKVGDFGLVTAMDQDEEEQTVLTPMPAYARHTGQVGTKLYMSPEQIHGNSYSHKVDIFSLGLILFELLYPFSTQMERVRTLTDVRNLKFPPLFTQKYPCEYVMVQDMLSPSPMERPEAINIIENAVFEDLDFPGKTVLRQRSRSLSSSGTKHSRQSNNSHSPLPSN
Description: <Experimental Example 1> Evaluation of PKR-Like Endoplasmic Reticulum Kinase (PERK) Inhibitory Capacity
as §1, with “PERK” for “GCN2”, “(8” for “(20”, “MOPS pH 7.0,” for “Tris/HCl pH8.5,”, “EDTA,” for “EDTA, 0.1% Tween, 100 mM NaCl,”, “uM” for “μM”, “15” for “70”

[3] = target: recombinant human HRI protein (Homo sapiens, UniProt Q9BQI3); assay: eIF2-alpha kinase heme-regulated inhibitor (HRI) inhibitory capacity, 33P-ATP filter assay; assay type: biochemical; conditions: 45 uM [gamma-33P-ATP], 40 minutes, room temperature
Sequence of recombinant human HRI protein (Q9BQI3 whole entry): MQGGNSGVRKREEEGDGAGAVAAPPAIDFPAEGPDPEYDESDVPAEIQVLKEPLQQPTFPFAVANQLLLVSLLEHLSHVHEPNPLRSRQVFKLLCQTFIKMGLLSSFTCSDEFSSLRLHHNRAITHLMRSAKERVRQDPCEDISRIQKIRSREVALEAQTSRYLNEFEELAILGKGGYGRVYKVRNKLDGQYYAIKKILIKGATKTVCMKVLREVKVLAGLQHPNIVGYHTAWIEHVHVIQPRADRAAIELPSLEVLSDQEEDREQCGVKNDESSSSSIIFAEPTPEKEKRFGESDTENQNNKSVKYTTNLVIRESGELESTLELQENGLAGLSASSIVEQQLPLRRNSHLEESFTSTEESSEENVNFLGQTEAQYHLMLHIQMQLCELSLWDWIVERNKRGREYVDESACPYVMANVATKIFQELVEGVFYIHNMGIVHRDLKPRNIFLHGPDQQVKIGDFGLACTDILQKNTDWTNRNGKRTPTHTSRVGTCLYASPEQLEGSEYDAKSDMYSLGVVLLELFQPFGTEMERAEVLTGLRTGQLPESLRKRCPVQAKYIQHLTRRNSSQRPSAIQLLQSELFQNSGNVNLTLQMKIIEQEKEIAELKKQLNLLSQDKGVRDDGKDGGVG
Description: <Experimental Example 3> Evaluation of eIF2-Alpha Kinase Heme-Regulated Inhibitor (HRI) Inhibitory Capacity
A recombinant human HRI protein was mixed with the compound in a reaction solution (50 mM Tris/HCl pH 7.5, 0.04 mM EDTA, 300 uM RSRSRSRSRSRSRSR, 10 mM Magnesium acetate, 45 uM [gamma-33P-ATP]) and reacted at room temperature for 40 minutes. Then, the reaction was terminated by adding phosphoric acid (0.5%) to the reaction mixture, and […] of the reaction solution was dropped onto a P30 filter. The filter was washed four times in a 0.425% phosphoric acid solution for 4 minutes, then […] washed once more in methanol, dried, and the HRI activity was measured by scintillation counting. […] The compound was diluted by 1/3 from the highest concentration of 1 uM and treated with a total of 9 concentrations to evaluate the degree of inhibition.

[4] = target: recombinant human PKR protein (Homo sapiens, UniProt P19525); assay: Protein kinase R (PKR) inhibitory capacity, 33P-ATP filter assay; assay type: biochemical; conditions: 15 uM [gamma-33P-ATP], 40 minutes, room temperature
Sequence of recombinant human PKR protein (P19525 whole entry): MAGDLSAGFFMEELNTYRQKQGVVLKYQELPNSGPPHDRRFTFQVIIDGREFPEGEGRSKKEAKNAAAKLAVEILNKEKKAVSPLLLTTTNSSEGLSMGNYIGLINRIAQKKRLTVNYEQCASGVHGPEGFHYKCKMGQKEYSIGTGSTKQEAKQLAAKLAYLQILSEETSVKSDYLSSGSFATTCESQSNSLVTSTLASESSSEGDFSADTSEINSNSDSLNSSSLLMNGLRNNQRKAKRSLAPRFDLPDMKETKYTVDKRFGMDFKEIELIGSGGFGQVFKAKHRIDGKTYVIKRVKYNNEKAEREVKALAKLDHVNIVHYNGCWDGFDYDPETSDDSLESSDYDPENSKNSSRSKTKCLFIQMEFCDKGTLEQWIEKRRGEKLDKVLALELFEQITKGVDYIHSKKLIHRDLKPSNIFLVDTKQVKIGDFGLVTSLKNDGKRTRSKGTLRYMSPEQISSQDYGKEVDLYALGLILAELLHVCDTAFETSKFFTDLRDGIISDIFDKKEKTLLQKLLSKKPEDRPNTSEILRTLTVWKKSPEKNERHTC
Description: <Experimental Example 4> Evaluation of Protein Kinase R (PKR) Inhibitory Capacity
A recombinant human PKR protein was mixed with the compound in a reaction solution (8 mM MOPS pH 7.0, 0.2 mM EDTA, 20 uM RSRSRSRSRSRSRSR, 10 mM Magnesium acetate, 15 uM [gamma-33P-ATP]) and reacted at room temperature for 40 minutes. Then, the reaction was terminated by adding phosphoric acid (0.5%) to the reaction mixture, and 10 ul of the reaction solution was dropped onto a P30 filter. The filter was washed four times in a 0.425% phosphoric acid solution for 4 minutes, then washed once more in methanol, dried, and the PKR activity was measured by scintillation counting. […] The compound was diluted by 1/3 from the highest concentration of 1 uM and treated with a total of 9 concentrations to evaluate the degree of inhibition.

SMILES	pIC50 [1]	inhibitory effect on the phosphorylated GCN2 (phosphorylated GCN2)	Phospho-GCN2 inhibition (phosphorylated GCN2)	pIC50 [2]	pIC50 [3]	pIC50 [4]
COc1ncc(Cl)cc1S(=O)(=O)Nc1ccc(F)c(-n2c(=O)c3cnc(N)nc3n(C3CC3)c2=O)c1F [Example 65, N-(3-(7-amino-1-cyclopropyl-2,4-dioxo-1,4-dihydropyrimido[4,5-d]pyrimidin-3(2H)-yl)-2,4-difluorophenyl)-5-chloro-2-methoxypyridine-3-sulfonamide]	6.00 to 6.52	excellent inhibitory effect	◯	–	–	–
Nc1ncc2c(=O)n(-c3c(F)ccc(NS(=O)(=O)c4cc(Cl)ccc4Cl)c3F)c(=O)n(C3CC3)c2n1 [Example 63, N-(3-(7-amino-1-cyclopropyl-2,4-dioxo-1,4-dihydropyrimido[4,5-d]pyrimidin-3(2H)-yl)-2,4-difluorophenyl)-2,5-dichlorobenzenesulfonamide]	6.00 to 6.52	excellent inhibitory effect	◯	–	–	–
Nc1ncc2c(=O)n(-c3c(F)ccc(NS(=O)(=O)c4cccc5ccccc45)c3F)c(=O)n(C3CC3)c2n1 [Example 64, N-(3-(7-amino-1-cyclopropyl-2,4-dioxo-1,4-dihydropyrimido[4,5-d]pyrimidin-3(2H)-yl)-2,4-difluorophenyl)naphthalene-1-sulfonamide]	6.00 to 6.52	excellent inhibitory effect	◯	–	–	–
COc1ncc(Cl)cc1S(=O)(=O)Nc1ccc(F)c(-n2nc(C)c3nc(N)ncc3c2=O)c1F [Example 38, N-(3-(2-amino-8-methyl-5-oxopyrimido[4,5-d]pyridazine-6(5H)-yl)-2,4-difluorophenyl)-5-chloro-2-methoxypyridine-3-sulfonamide]	6.52 to 7.00	–	◯	–	–	–

The remaining lines, values ahead:

pIC50 [1]	inhibitory effect on the phosphorylated GCN2 (phosphorylated GCN2)	Phospho-GCN2 inhibition (phosphorylated GCN2)	pIC50 [2]	pIC50 [3]	pIC50 [4]	SMILES
6.52 to 7.00	excellent inhibitory effect	–	–	–	–	Cc1nn(-c2c(F)ccc(NS(=O)(=O)c3c(Cl)nn(C)c3C)c2F)c(=O)c2cnc(N)nc12 [Example 36, N-(3-(2-amino-8-methyl-5-oxopyrimido[4,5-d]pyridazine-6(5H)-yl)-2,4-difluorophenyl)-3-chloro-1,5-dimethyl-1H-pyrazole-4-sulfonamide]
6.52 to 7.00	–	◯	–	–	–	Cc1nn(C)c(C)c1S(=O)(=O)Nc1ccc(F)c(-n2c(=O)c3cnc(N)nc3n(C)c2=O)c1F [Example 48, N-(3-(7-amino-1-methyl-2,4-dioxo-1,4-dihydropyrimido[4,5-d]pyrimidin-3(2H)-yl)-2,4-difluorophenyl)-1,3,5-trimethyl-1H-pyrazole-4-sulfonamide]
> 7.00	–	–	> 7.00	6.52 to 7.00	6.00 to 6.52	Cn1c(=O)n(-c2c(F)ccc(NS(=O)(=O)c3cc(Cl)cnc3Cl)c2F)c(=O)c2cnc(N)nc21 [Example 57, N-(3-(7-amino-1-methyl-2,4-dioxo-1,4-dihydropyrimido[4,5-d]pyrimidin-3(2H)-yl)-2,4-difluorophenyl)-2,5-dichloropyridine-3-sulfonamide]
> 7.00	excellent inhibitory effect	◯	–	–	–	COc1ncc(Cl)cc1S(=O)(=O)Nc1ccc(F)c(-n2ccc3nc(N)ncc3c2=O)c1F [Example 26, N-(3-(2-amino-5-oxopirido[4,3-d]pyrimidin-6(5H)-yl)-2,4-difluorophenyl)-5-chloro-2-methoxypyridine-3-sulfonamide]
